Reference: US20150005281A1, “PYRIMIDINE-2,4-DIAMINE DERIVATIVES AS KINASE INHIBITORS” (Cellzome Limited, priority 2011, published 2015)

Legend:
Assay type in all cases: binding
JAK3 = molecular target: T1, JAK3 (Homo sapiens, UniProt P52333); assay: Kinobeads assay with immunodetection, JAK3; conditions: for IC50: Kinobeads assay, mixed Molt4/Ramos lysate, read-out: Inhibition values (IC50) JAK3
T1 construct: endogenous in cells; host or cells: Molt4 (ATCC CRL-1582) and Ramos (ATCC CRL-1596) cells; mixed lysate 1:2
T1 sequence (P52333 1-1124): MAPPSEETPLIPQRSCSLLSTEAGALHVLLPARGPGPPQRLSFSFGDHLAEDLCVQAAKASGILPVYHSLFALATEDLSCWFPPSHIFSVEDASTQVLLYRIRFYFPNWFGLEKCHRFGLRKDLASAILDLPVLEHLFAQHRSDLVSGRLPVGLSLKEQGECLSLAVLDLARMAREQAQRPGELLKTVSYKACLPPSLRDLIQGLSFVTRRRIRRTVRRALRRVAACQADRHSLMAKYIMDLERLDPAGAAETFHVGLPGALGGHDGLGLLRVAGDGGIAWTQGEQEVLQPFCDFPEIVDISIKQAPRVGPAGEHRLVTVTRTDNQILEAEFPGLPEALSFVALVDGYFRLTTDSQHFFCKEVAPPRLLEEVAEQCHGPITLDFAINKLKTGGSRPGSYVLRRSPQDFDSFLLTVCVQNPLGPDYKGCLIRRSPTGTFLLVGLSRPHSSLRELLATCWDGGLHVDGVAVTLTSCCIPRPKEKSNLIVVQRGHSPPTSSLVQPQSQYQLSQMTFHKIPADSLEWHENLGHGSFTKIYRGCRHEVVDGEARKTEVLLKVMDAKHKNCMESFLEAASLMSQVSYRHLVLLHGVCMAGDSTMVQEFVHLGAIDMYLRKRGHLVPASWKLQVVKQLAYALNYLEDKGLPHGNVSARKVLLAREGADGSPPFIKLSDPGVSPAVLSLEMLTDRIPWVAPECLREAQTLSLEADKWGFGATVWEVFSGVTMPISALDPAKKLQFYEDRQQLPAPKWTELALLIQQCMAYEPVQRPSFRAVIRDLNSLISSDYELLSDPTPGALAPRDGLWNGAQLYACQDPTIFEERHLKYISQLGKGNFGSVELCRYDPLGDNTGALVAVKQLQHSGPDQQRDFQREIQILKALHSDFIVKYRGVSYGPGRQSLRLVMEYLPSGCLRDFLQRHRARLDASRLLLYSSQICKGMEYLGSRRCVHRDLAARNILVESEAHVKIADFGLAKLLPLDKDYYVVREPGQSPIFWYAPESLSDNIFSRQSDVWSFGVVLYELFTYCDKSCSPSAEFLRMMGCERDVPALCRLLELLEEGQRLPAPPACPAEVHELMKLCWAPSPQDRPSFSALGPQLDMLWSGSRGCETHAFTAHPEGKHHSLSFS
Procedure, shortened: (§1)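 Steps: compound serially diluted 1:3 in DMSO; added with kinobeads to mixed Molt4/Ramos lysate; 3 h cold incubation; wash; SDS elution; antibody dot blot quantitation of each kinase; IC50 fitting.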

JAK2 = molecular target: T2, JAK2 (Homo sapiens, UniProt O60674); assay: Kinobeads assay with immunodetection, JAK2; conditions: mixed Molt4/Ramos lysate, read-out: Inhibition values (IC50) JAK2
T2 construct: endogenous in cells; host or cells: Molt4 (ATCC CRL-1582) and Ramos (ATCC CRL-1596) cells; mixed lysate 1:2
T2 sequence (O60674 whole entry): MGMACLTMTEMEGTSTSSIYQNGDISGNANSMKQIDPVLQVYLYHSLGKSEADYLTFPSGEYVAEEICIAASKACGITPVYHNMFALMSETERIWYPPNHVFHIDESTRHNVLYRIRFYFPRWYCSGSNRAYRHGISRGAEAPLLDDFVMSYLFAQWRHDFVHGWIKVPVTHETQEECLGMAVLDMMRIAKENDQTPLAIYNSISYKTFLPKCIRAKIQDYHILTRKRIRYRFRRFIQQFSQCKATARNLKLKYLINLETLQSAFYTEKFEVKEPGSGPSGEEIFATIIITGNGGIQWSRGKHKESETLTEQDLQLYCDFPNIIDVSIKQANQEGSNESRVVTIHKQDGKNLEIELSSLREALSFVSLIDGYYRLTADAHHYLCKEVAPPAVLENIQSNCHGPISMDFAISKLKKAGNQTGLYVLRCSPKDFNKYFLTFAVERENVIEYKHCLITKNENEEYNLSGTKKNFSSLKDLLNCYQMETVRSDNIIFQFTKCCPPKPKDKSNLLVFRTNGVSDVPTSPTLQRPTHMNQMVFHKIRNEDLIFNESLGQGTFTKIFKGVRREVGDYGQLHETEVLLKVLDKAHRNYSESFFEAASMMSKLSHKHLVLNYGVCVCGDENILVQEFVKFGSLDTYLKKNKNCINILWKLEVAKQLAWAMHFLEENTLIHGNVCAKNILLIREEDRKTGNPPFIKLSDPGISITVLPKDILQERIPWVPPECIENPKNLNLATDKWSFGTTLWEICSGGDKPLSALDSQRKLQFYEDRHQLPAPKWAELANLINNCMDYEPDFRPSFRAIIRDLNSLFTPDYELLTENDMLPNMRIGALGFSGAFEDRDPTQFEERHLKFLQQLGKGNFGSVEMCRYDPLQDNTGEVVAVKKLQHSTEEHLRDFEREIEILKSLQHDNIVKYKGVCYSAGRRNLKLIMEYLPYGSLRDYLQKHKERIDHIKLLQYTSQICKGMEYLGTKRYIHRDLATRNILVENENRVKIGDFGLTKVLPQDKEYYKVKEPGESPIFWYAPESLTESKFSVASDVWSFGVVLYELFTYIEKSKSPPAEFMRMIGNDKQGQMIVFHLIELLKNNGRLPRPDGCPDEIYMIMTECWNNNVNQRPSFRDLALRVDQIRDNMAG
Procedure, shortened: as §1

JAK1 = molecular target: T3, JAK1 (Homo sapiens, UniProt P23458); assay: Kinobeads assay with immunodetection, JAK1; conditions: for IC50: Kinobeads assay, mixed Molt4/Ramos lysate, read-out: Inhibition values (IC50) JAK1
T3 construct: endogenous in cells; host or cells: Molt4 (ATCC CRL-1582) and Ramos (ATCC CRL-1596) cells; mixed lysate 1:2
T3 sequence (P23458 whole entry): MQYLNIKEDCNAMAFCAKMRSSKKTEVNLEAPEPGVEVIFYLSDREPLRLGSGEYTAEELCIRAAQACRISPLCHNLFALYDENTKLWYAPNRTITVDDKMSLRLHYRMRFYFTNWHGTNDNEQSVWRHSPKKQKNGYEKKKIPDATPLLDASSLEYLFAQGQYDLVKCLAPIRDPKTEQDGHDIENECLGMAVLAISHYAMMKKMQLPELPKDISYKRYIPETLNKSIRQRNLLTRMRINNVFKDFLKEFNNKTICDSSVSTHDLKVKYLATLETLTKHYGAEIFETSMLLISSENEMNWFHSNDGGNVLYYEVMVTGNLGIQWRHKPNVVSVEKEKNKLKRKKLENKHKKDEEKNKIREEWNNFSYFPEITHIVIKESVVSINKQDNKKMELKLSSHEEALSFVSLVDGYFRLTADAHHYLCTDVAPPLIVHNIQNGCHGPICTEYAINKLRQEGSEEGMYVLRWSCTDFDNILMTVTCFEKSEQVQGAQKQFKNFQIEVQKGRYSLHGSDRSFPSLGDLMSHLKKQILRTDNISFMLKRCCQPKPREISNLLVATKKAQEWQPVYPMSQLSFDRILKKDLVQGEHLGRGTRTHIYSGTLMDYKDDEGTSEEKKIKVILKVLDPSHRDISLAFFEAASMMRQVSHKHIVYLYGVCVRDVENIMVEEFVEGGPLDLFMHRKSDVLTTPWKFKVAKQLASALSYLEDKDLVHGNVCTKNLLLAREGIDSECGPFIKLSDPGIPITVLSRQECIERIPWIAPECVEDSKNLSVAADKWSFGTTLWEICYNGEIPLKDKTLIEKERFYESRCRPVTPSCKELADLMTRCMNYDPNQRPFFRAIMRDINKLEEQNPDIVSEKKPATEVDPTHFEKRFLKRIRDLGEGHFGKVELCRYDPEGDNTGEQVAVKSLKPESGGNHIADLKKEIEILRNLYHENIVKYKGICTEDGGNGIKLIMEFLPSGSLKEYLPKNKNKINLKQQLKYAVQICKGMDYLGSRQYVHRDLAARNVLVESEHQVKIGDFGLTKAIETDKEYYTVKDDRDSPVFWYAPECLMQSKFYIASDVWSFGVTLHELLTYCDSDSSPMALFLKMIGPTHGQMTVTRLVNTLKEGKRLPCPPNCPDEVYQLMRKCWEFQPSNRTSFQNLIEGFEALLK
Procedure, shortened: as §1

TYK2 = molecular target: T4, TYK2 (Homo sapiens, UniProt P29597); assay: Kinobeads assay with immunodetection, TYK2; conditions: for IC50: Kinobeads assay, mixed Molt4/Ramos lysate, read-out: Inhibition values (IC50) Tyk2
T4 construct: endogenous in cells; host or cells: Molt4 (ATCC CRL-1582) and Ramos (ATCC CRL-1596) cells; mixed lysate 1:2
T4 sequence (P29597 whole entry): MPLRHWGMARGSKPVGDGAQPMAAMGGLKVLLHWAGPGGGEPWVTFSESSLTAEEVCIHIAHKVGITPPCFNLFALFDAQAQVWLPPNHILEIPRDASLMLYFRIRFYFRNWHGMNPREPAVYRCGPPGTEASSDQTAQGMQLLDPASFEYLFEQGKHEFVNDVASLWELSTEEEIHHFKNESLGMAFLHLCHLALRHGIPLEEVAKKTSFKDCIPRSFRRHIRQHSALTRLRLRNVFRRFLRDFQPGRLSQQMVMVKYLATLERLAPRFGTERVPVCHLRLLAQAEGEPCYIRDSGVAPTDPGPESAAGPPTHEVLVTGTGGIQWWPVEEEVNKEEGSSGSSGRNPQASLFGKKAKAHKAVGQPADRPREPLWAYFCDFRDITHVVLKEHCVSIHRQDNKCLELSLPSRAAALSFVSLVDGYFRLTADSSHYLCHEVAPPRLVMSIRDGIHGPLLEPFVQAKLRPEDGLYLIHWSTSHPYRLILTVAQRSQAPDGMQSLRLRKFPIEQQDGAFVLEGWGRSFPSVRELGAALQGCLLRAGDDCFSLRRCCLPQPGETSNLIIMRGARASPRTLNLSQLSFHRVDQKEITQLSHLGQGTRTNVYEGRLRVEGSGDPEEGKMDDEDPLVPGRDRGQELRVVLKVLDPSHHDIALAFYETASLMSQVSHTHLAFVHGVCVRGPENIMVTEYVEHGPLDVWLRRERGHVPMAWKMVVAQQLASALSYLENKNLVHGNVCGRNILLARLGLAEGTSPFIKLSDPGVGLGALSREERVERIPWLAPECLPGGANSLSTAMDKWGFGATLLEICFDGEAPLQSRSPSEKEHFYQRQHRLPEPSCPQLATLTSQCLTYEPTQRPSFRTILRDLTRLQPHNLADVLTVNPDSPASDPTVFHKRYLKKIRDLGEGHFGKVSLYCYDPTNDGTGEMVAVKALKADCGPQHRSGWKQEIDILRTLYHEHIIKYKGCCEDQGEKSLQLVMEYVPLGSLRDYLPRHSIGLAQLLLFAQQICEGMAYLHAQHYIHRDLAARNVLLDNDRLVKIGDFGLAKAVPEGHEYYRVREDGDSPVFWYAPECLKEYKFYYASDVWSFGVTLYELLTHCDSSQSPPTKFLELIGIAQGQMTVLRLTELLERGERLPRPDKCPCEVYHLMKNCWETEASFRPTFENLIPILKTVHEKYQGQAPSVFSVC
Procedure, shortened: as §1

Row | SMILES | IC50 (JAK3) [nM] | IC50 (JAK2) [nM] | IC50 (JAK1) [nM] | IC50 (TYK2) [nM] | Selectivity ratio over JAK2, Tyk2 (TYK2) | Selectivity ratio over JAK2, JAK1 (JAK1) | Selectivity ratio over JAK2, JAK3 (JAK3)
1 | CCNC(=O)N1CCC[C@@H]1CNc1nc(Nc2cnn(C)c2)ncc1Cl [Example 88, (R)-2-(((5-chloro-2-((1-methyl-1H-pyrazol-4-yl)amino)pyrimidin-4-yl)amino)methyl)-N-ethylpyrrolidine-1-carboxamide] | 100 to 1000 | 100 to 1000 | 100 to 1000 | < 100 | Tyk2 = 35 | – | –
2 | Cn1cc(Nc2ncc(Cl)c(NC[C@H]3CCCN3C(=O)NC3CC3)n2)cn1 [Example 89, (R)-2-(((5-chloro-2-((1-methyl-1H-pyrazol-4-yl)amino)pyrimidin-4-yl)amino)methyl)-N-cyclopropylpyrrolidine-1-carboxamide] | 100 to 1000 | 100 to 1000 | < 100 | < 100 | Tyk2 = 5 | – | –
3 | Cn1cc(Nc2ncc(Cl)c(NC[C@@H]3C[C@H](F)CN3CCC#N)n2)cn1 [Example 90, 3-((2S,4S)-2-(((5-chloro-2-((1-methyl-1H-pyrazol-4-yl)amino)pyrimidin-4-yl)amino)methyl)-4-fluoropyrrolidin-1-yl)propanenitrile] | < 100 | 100 to 1000 | < 100 | < 100 | – | JAK1 = 23 | –
4 | Cn1cc(Nc2ncc(Cl)c(NC[C@@H]3C[C@H](F)CN3CCS(C)(=O)=O)n2)cn1 [Example 91, 5-chloro-N^4-(((2S,4S)-4-fluoro-1-(2-(methylsulfonyl)ethyl)pyrrolidin-2-yl)methyl)-N^2-(1-methyl-1H-pyrazol-4-yl)pyrimidine-2,4-diamine] | < 100 | 100 to 1000 | < 100 | < 100 | – | JAK1 = 27 | –
5 | Cn1cc(Nc2ncc(Cl)c(NC[C@@H]3CCCN3C(=O)CCC#N)n2)cn1 [Example 92, (S)-4-(2-(((5-chloro-2-((1-methyl-1H-pyrazol-4-yl)amino)pyrimidin-4-yl)amino)methyl)pyrrolidin-1-yl)-4-oxobutanenitrile] | < 100 | 100 to 1000 | < 100 | < 100 | – | JAK1 = 30 | –
6 | Cn1cc(Nc2nccc(NC[C@H]3CCCN3C(=O)CCC#N)n2)cn1 [Example 93, (R)-4-(2-(((2-((1-methyl-1H-pyrazol-4-yl)amino)pyrimidin-4-yl)amino)methyl)pyrrolidin-1-yl)-4-oxobutanenitrile] | 1000 to 10000 | 1000 to 10000 | < 100 | < 100 | Tyk2 = 145 | – | –
7 | CC(C)NC(=O)Cn1cc(Nc2nccc(NC[C@H]3CCCN3C(=O)CCC#N)n2)cn1 [Example 94, (R)-2-(4-((4-(((1-(3-cyanopropanoyl)pyrrolidin-2-yl)methyl)amino)pyrimidin-2-yl)amino)-1H-pyrazol-1-yl)-N-isopropylacetamide] | 1000 to 10000 | 1000 to 10000 | 100 to 1000 | < 100 | Tyk2 = 609 | – | –
8 | Cn1cc(Nc2nccc(NC[C@H]3CCCN3C(=O)CC#N)n2)cn1 [Example 95, (R)-3-(2-(((2-((1-methyl-1H-pyrazol-4-yl)amino)pyrimidin-4-yl)amino)methyl)pyrrolidin-1-yl)-3-oxopropanenitrile] | 1000 to 10000 | 1000 to 10000 | 100 to 1000 | < 100 | Tyk2 = 138 | – | –
9 | CC(C)NC(=O)Cn1cc(Nc2nccc(NC[C@H]3CCCN3C(=O)CC#N)n2)cn1 [Example 96, (R)-2-(4-((4-(((1-(2-cyanoacetyl)pyrrolidin-2-yl)methyl)amino)pyrimidin-2-yl)amino)-1H-pyrazol-1-yl)-N-isopropylacetamide] | 1000 to 10000 | > 10000 | 100 to 1000 | < 100 | Tyk2 = 555 | – | –
10 | Cn1cc(Nc2ncc(Cl)c(NC[C@H]3CCCN3CCCC#N)n2)cn1 [Example 97, (R)-4-(2-(((5-chloro-2-((1-methyl-1H-pyrazol-4-yl)amino)pyrimidin-4-yl)amino)methyl)pyrrolidin-1-yl)butanenitrile] | < 100 | 1000 to 10000 | < 100 | < 100 | – | – | JAK3 = 160
11 | Cn1cc(Nc2ncc(Cl)c(NC[C@H]3CCCN3S(=O)(=O)C3CC3)n2)cn1 [Example 98, (R)-5-chloro-N^4-((1-(cyclopropylsulfonyl)pyrrolidin-2-yl)methyl)-N^2-(1-methyl-1H-pyrazol-4-yl)pyrimidine-2,4-diamine] | < 100 | 100 to 1000 | < 100 | < 100 | – | – | JAK3 = 53
12 | Cn1cc(Nc2ncc(Cl)c(NC[C@H]3CCCN3CC(=O)NCC#N)n2)cn1 [Example 99, (R)-2-(2-(((5-chloro-2-((1-methyl-1H-pyrazol-4-yl)amino)pyrimidin-4-yl)amino)methyl)pyrrolidin-1-yl)-N-(cyanomethyl)acetamide] | < 100 | 1000 to 10000 | < 100 | 100 to 1000 | – | – | JAK3 = 155
13 | Cc1cnc(Nc2cnn(C)c2)nc1NC[C@@H]1C[C@H](F)CN1CCS(C)(=O)=O [Example 100, N^4-(((2S,4S)-4-fluoro-1-(2-(methylsulfonyl)ethyl)pyrrolidin-2-yl)methyl)-5-methyl-N^2-(1-methyl-1H-pyrazol-4-yl)pyrimidine-2,4-diamine] | 100 to 1000 | 100 to 1000 | < 100 | < 100 | – | JAK1 = 26 | –
14 | Cc1cnc(Nc2cnn(C)c2)nc1NC[C@@H]1C[C@H](F)CN1CCC#N [Example 101, 3-((2S,4S)-4-fluoro-2-(((5-methyl-2-((1-methyl-1H-pyrazol-4-yl)amino)pyrimidin-4-yl)amino)methyl)pyrrolidin-1-yl)propanenitrile] | 100 to 1000 | 100 to 1000 | < 100 | < 100 | – | JAK1 = 17 | –
15 | Cc1cnc(Nc2cnn(C)c2)nc1NC[C@@H]1C[C@H](F)CN1CC#N [Example 102, 2-((2S,4S)-4-fluoro-2-(((5-methyl-2-((1-methyl-1H-pyrazol-4-yl)amino)pyrimidin-4-yl)amino)methyl)pyrrolidin-1-yl)acetonitrile] | 100 to 1000 | 1000 to 10000 | < 100 | 100 to 1000 | – | JAK1 = 16 | –
16 | Cc1cnc(Nc2cnn(C)c2)nc1NC[C@@H]1C[C@H](F)CN1C(=O)CC#N [Example 103, 3-((2S,4S)-4-fluoro-2-(((5-methyl-2-((1-methyl-1H-pyrazol-4-yl)amino)pyrimidin-4-yl)amino)methyl)pyrrolidin-1-yl)-3-oxopropanenitrile] | 100 to 1000 | > 10000 | < 100 | 100 to 1000 | – | JAK1 = 150 | –
17 | Cc1cnc(Nc2cnn(C)c2)nc1NC[C@@H]1C[C@H](F)CN1C(=O)CCC#N [Example 104, 4-((2S,4S)-4-fluoro-2-(((5-methyl-2-((1-methyl-1H-pyrazol-4-yl)amino)pyrimidin-4-yl)amino)methyl)pyrrolidin-1-yl)-4-oxobutanenitrile] | 100 to 1000 | 1000 to 10000 | < 100 | < 100 | – | JAK1 = 96 | –
18 | Cc1cnc(Nc2cnn(C)c2)nc1NC[C@@H]1CCCN1CCS(C)(=O)=O [Example 105, (S)-5-methyl-N^2-(1-methyl-1H-pyrazol-4-yl)-N^4-((1-(2-(methylsulfonyl)ethyl)pyrrolidin-2-yl)methyl)pyrimidine-2,4-diamine] | 100 to 1000 | 1000 to 10000 | < 100 | < 100 | – | JAK1 = 33 | –
